Reference: patent US20030138816A1, “Methods and kits for diagnosing the occurrence or the phase of minimal change nephrotic syndrome (MCNS) in a human” (INSTITUT NATIONAL DE LA SANTE ET DE LA RECHERCHE MEDICALE, priority 2001, published 2003)
Residues, ends and D or L forms follow the SMILES beside them. *: point of attachment. Cbz = O=C(OCc1ccccc1)*

Columns and labels:
[1] = system: patient with Minimal Change Nephrotic Syndrome; test: Prednisone treatment of the patient selected for the subtractive library (onset of nephrotic syndrome, MCNS); type: in vivo, human; conditions: one patient, prednisone 1 mg/kg/day for four weeks, then tapered
[2] = system: PBMC from relapse; test: Incubation of PBMCs with the proteasome inhibitor MG132, c-maf protein in protein extracts; type: cell-based, human; conditions: co culture of PBMC from MCNS relapse with MG132, 10 μM, overnight
Protocol: 5) Quantification of IL4 mRNA by quantitative RT-PCR. Quantitative PCR was performed using the Light Cycler (Roche Molecular Biochemical). The samples (2 μl of the RT reaction, corresponding to 20 ng of total RNA) were amplified in a 20 μl reaction mixture containing […] each primer, and 1×mix LightCycler-DNA master SYBR Green buffer (Roche Molecular Biochemical). Carry-over was prevented by using dUTP instead of dTTP, and heat-labile Uracil DNA glyco-sylase (UDG). A standard curve was made using dilution of the RNA prepared from pUc9-IL4 plasmid. The PCR reaction was started by a denaturation at 95° C. for 2 min followed by 40 three step cycles (95° C.: 1 sec, 60° C.: 10 sec, and 72° C.: 24 sec). The relative value for each sample was calculated using the LightCycler analysis software. 6) Electromobility shift assays (EMSA), immunoprecipitations and Western blottings: Cytosolic and nuclear protein preparations as well as EMSA were performed as previously described (34). […] The subunit composition of DNA-protein complexes containing c-Maf was determined by preincubation of nuclear extracts with 1 μg of polyclonal antibodies raised against c-Maf (sc-7866), c-Fos (sc-7202), and c-Jun (sc-1694), (Santa Cruz, Biotechnology), before the addition of the probe. […] Band shifts were quantified using the ImageQuant V1.11 analysis software. […]

Compound | remission of nephrotic syndrome [1] | effect on L/c-maf protein (long form) [2] | effect on S/c-maf protein (short form) [2]
C[C@]12C=CC(=O)C=C1CC[C@@H]1[C@@H]2C(=O)C[C@@]2(C)[C@H]1CC[C@]2(O)C(=O)CO [prednisone] | Complete remission was obtained within ten days |  | 
CC(C)C[C@@H](C=O)NC(=O)[C@H](CC(C)C)NC(=O)[C@H](CC(C)C)NC(=O)OCc1ccccc1 [MG132, carbobenzoxyl-leucinyl-leucinyl-leucinal-H] (Cbz-Leu-Leu-Leu-aldehyde) |  | no evident change | induces a sequestration of S/c-maf protein
